Series [1] can be described thus: Kinetic solubility analysis. Type of series: physicochemical. The conditions noted are these: 1× PBS, 24.2 °C, aqueous buffer, kinetic from dmso stock; pH 7.4 PBS, 1% DMSO, 24-hour incubation at ambient temperature. The protocol: Example 108: Kinetic Solubility Analysis
Buffer Preparation: 0.1 N HCl: Hydrochloric acid, 0.1 N standardized solution (MP Biomedicals part number 199569). 1×PBS, pH 7.4: Phosphate Buffered Saline (PBS) solution 10× (Fisher Bioreagent part number BP399-500) 50 mL was added to approximately 450 mL HPLC grade H2O. The volume of the solution was then adjusted to 500 mL for a total dilution factor of 1:10 and a final PBS concentration of 1×.
The final DMSO concentration was 1.0% (v/v) and maximum theoretical compound concentration is 100 μM (for compound stock concentration of 10 mM). The filter plate was sealed. Following 24-hour incubation at ambient temperature (24.2-27.5° C.), the samples were vacuum filtered and the filtrates were collected in a 96 well polypropylene plate for analysis. The collection plate was sealed for analysis. Filtrates were injected into the Antek 8060 chemiluminescent nitrogen detector for quantification. The results are reported in μM.
The filtrates were quantified with respect to this calibration curve. Each calculated solubility value was corrected for background nitrogen present in the DMSO and in the medium used to prepare the sample. All reported values for compounds containing adjacent nitrogen atoms in a ring structure were increased by approximately 25%.

Series [2] in a line: Cytotoxicity assay in MT-4 cells. The conditions noted are these: human, uninfected MT-4 cells, average of at least two independent experiments, read-out: MT4 CC50. It is filed as cell-based. The protocol:
Compounds were tested in a high-throughput 384-well assay format for their ability to inhibit the replication of HIV-1 (IIIB) in MT-4 cells. Compounds were serially diluted (1:3) in DMSO on 384-well polypropylene plates and further diluted 200-fold into complete RPMI media (10% FBS, 1% P/S) using the Biotek Micro Flow and Labcyte ECHO acoustic dispenser. Each plate contained up to 8 test compounds, with negative (no drug) and positive (5 μM AZT) controls. MT-4 cells were pre-treated with 10 μL of either RPMI (mock-infected) or a fresh 1:250 dilution of HIV-1 IIIB concentrated virus stock. Infected and uninfected MT-4 cells were further diluted in complete RPMI media and added to each plate using a Micro Flow dispenser. After 5 days incubation in a humidified and temperature-controlled incubator (37° C.), Cell Titer Glo (Promega) was added to the assay plates and chemiluminescence read using an Envision plate-reader. EC50 values were defined as the compound concentration that causes a 50% decrease in luminescence signal and were calculated using a sigmoidal dose-response model to generate curve fits and are shown in Table 1.
Example 105: Cytotoxicity Assay in MT-4 Cells
Assays were performed as described in Example 104 except uninfected MT-4 cells were added to each well containing test compound. In addition, 10 μM puromycin was added to the last column of each assay plate to assess a base level of cytotoxicity.

SMILES strings stand for the structures. ≈ marks a conversion by molar mass, not a printed value.

With `C[C@H](Cn1cnc2c(N)ncnc21)OCP(=O)(N[C@@](C)(Cc1ccccc1)C(=O)OCC1CCCCC1)N[C@@](C)(Cc1ccccc1)C(=O)OCC1CCCCC1` [Example 15, Bis(cyclohexylmethyl) 2,2′-((((((R)-1-(6-amino-9H-purin-9-yl)propan-2-yl)oxy)methyl)phosphoryl)bis(azanediyl))(2S,2'S)-bis(2-methyl-3-phenylpropanoate)], the kinetic solubility at 24 h in series [1] worked out at 2 µg/mL (≈ 2.49 µM). Further, the CC50 at 5 days in series [2] was 4.36 µM.
On the same counts, the results for `CCCCCCOC(=O)C(C)(C)NP(=O)(CO[C@H](C)Cn1cnc2c(N)ncnc21)N[C@]1(C(=O)OCCCCCC)C[C@H]1CC` (stereo partly drawn) [Example 16, Hexyl (1R,2R)-1-((((((R)-1-(6-amino-9H-purin-9-yl)propan-2-yl)oxy)methyl)((1-(hexyloxy)-2-methyl-1-oxopropan-2-yl)amino)phosphoryl)amino)-2-ethylcyclopropane-1-carboxylate] are 12 µg/mL (≈ 18.4 µM) and 6.41 µM.
On to `CCCCCCOC(=O)[C@@]1(NP(=O)(CO[C@H](C)Cn2cnc3c(N)ncnc32)N[C@]2(C(=O)OCCCCCC)C[C@H]2CC)C[C@H]1CC` [Example 17, Dihexyl 1,1′-((((((R)-1-(6-amino-9H-purin-9-yl)propan-2-yl)oxy)methyl)phosphoryl)bis(azanediyl))(1R,1′R,2R,2′R)-bis(2-ethylcyclopropane-1-carboxylate)], for which, in series [2], the CC50 at 5 days is 8.85 µM.
The compound `CCCCCCOC(=O)C(C)(C)NP(=O)(CO[C@H](C)Cn1cnc2c(N)ncnc21)NC1(C(=O)OCCCCCC)CCC1` (stereo partly drawn) [Example 18, Hexyl 1-((((((R)-1-(6-amino-9H-purin-9-yl)propan-2-yl)oxy)methyl)((1-(hexyloxy)-2-methyl-1-oxopropan-2-yl)amino)phosphoryl)amino)cyclobutane-1-carboxylate] had a solubility (kinetic) at 24 h in series [1] of 22 µg/mL (≈ 34.5 µM). In addition, the CC50 at 5 days in series [2] was determined as 6.57 µM.
On the same counts, the results for `CCCCCCOC(=O)C1(NP(=O)(CO[C@H](C)Cn2cnc3c(N)ncnc32)NC2(C(=O)OCCCCCC)CCC2)CCC1` [Example 19, Dihexyl 1,1′-(((((1-(6-amino-9H-purin-9-yl)propan-2-yl)oxy)methyl)phosphoryl)bis(azanediyl))(R)-bis(cyclobutane-1-carboxylate)] are 18 µg/mL (≈ 27.7 µM) and 17.3 µM.
As for `C[C@H](Cn1cnc2c(N)ncnc21)OCP(=O)(NC(C)(C)C(=O)OC1CCCC1)NC(C)(C)C(=O)OC1CCCC1` [Example 34, Dicyclopentyl 2,2′-(((((1-(6-amino-9H-purin-9-yl)propan-2-yl)oxy)methyl)phosphoryl)bis(azanediyl))(R)-bis(2-methylpropanoate)], the kinetic solubility at 24 h in series [1] is 59 µg/mL (≈ 99.4 µM). Also, the CC50 at 5 days in series [2] amounted to 3.67 µM.
On the same counts, the results for `CC(C)COC(=O)C(C)(C)NP(=O)(CO[C@H](C)Cn1cnc2c(N)ncnc21)NC(C)(C)C(=O)OCC(C)C` [Example 35, Diisobutyl 2,2′-(((((1-(6-amino-9H-purin-9-yl)propan-2-yl)oxy)methyl)phosphoryl)bis(azanediyl))(R)-bis(2-methylpropanoate)] are 54 µg/mL (≈ 94.8 µM) and 4.35 µM.
The matching figures for `CCCOC(=O)C(C)(C)NP(=O)(CO[C@H](C)Cn1cnc2c(N)ncnc21)NC(C)(C)C(=O)OCCC` [Example 36, Dipropyl 2,2′-(((((1-(6-amino-9H-purin-9-yl)propan-2-yl)oxy)methyl)phosphoryl)bis(azanediyl))(R)-bis(2-methylpropanoate)]: 60 µg/mL (≈ 111 µM) and 8.96 µM.
As for `C[C@H](Cn1cnc2c(N)ncnc21)OCP(=O)(NC(C)(C)C(=O)OC1CCC2(CCC2)CC1)NC(C)(C)C(=O)OC1CCC2(CCC2)CC1` (stereo partly drawn) [Example 63, Di(spiro[3.5]nonan-7-yl) 2,2′-(((((1-(6-amino-9H-purin-9-yl)propan-2-yl)oxy)methyl)phosphoryl)bis(azanediyl))(R)-bis(2-methylpropanoate)], in series [2], the half-maximal cytotoxic concentration (CC50) at 5 days came to 2.22 µM.

Usually kinetic solubility stands for the concentration staying in solution when a stock, usually in DMSO, is diluted into the medium. The term CC50 denotes the concentration giving 50% cytotoxicity.
